This note sets out measurements from article PMC8876525 (Viruses, 2022).

Data set [1] concerns HBV. Nature of the data set: HepG2-NTCP de novo HBV infection model (viral markers, cccDNA Taq-Man qPCR). In kind it is cell-based. Particulars: HepG2-NTCP cells, 5 μM. (In general: Real-time PCR tracks product formation cycle by cycle.)
The target of data set [2] is HBc (Hepatitis B virus genotype D subtype ayw, UniProt P03146). Nature of the data set: Immunofluorescence of HBV core protein in HepAD38 cells. It is filed as cell-based. The note with it: 3 days, BAY 41-4109 2 μM.
In data set [3] the test system is HBsAg. The data set can be described thus: Secreted HBsAg ELISA. It is filed as cell-based, HBV. The note with it: 6 days, ETV 25 nM, BAY 41-4109 2 μM. (An ELISA detects its analyte on a solid surface through an enzyme-linked reagent.)
The subject of data set [4] is HBV core DNA. Nature of the data set: Intracellular HBV core DNA (qPCR) and replicative intermediates (Southern blot). It is filed as cell-based. Particulars: 6 days, qPCR.
For data set [5], the system named is wild-type HBV. Nature of the data set: Drug susceptibility assay, HepG2 transfected with HBV1.1-WT. The note with it: Hepatitis B virus, 144 h; wild-type HBV in HepG2, secreted HBV DNA, 6 days; read-out: viral replication EC50. It is filed as cell-based.
In data set [6] the test system is HepAD38 cells. Nature of the data set: CCK-8 cytotoxicity assay in HepAD38 cells. It is filed as cell-based, Human. A general note: Formazan colour is commonly taken as a measure of viable cells.
Data set [7] can be described thus: CCK-8 cytotoxicity assay in HepAD38 cells. In kind it is cell-based, Human. Particulars: human, 6 days.
Data set [8] relates to HBV encapsidated pgRNA. Nature of the data set: Encapsidated pgRNA and total HBV RNAs (Northern blot). Particulars: HepAD38 cells, BAY 41-4109 2 μM. It is filed as cell-based.
The test system of data set [9] is HBV. Nature of the data set: Secreted HBV DNA in HepAD38 culture supernatant (RT-qPCR). The note with it: HepAD38 cells. It is filed as cell-based.
The target of data set [10] is HBV capsid (Hepatitis B virus genotype D subtype ayw, UniProt P03146). The data set can be described thus: Intracellular HBV capsid formation. It is filed as cell-based. The note with it: HepAD38 or HepG2-HBV1.3 cells, compounds 10 μM, ETV 25 nM, BAY 41-4109 2 μM, 6 days.
The subject of data set [11] is HBV 3.5 kb RNA. The data set can be described thus: Intracellular HBV 3.5 kb RNA (RT-qPCR). It is filed as cell-based. The note with it: 6 days.
The target of data set [12] is Cp149 protein (Hepatitis B virus genotype D subtype ayw, UniProt P03146). Nature of the data set: Cp149 capsid assembly in vitro, transmission electron microscopy. In kind it is biochemical, HBV. Particulars: Cp149 5 μM dimer, 300 mM NaCl, 150 mM HEPES pH 7.5; BAY 41-4109 5 μM 3 days, C-39 20 μM 3 and 7 days.
A short description of data set [13]: CCK-8 cytotoxicity assay in HepG2-HBV1.3 (HepG2) cells. The note with it: human. It is filed as cell-based.
Data set [14] deals with HBV. The data set can be described thus: Secreted HBV DNA in HepG2-HBV1.3 culture supernatant (RT-qPCR). It is filed as cell-based. Particulars: Hepatitis B virus, 144 h; HepG2-HBV1.3 cells, 6 days.
The subject of data set [15] is ETV-resistant mutant (rtL180M/S202G/M204V) HBV. Nature of the data set: Drug susceptibility assay, HepG2 transfected with ETV-resistant mutant. It is filed as cell-based. The note with it: Hepatitis B virus, HepG2, 144 h, read-out: viral replication EC50.
The subject of data set [16] is HBeAg. The data set can be described thus: Secreted HBeAg ELISA. In kind it is cell-based, HBV. The note with it: 6 days.

HBc, sequence (P03146 whole entry): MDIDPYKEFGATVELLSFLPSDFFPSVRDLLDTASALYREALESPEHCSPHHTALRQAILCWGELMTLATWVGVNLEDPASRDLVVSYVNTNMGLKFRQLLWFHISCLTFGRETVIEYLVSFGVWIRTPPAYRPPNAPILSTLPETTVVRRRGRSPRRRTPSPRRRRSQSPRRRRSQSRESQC
Cp149 protein, sequence (P03146 1-149): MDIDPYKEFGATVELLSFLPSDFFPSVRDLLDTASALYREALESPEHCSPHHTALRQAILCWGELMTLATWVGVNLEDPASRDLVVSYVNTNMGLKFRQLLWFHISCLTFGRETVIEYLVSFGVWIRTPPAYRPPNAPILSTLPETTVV
HBV capsid, sequence (P03146 whole entry): as the sequence (P03146 whole entry) above

A word on the EC50: it is the concentration at which the effect is half-maximal. One may read the CC50 as the concentration that lowers cell viability or growth by half. With `CCOC(=O)c1c(S(=O)(=O)N2CCCC(C(=O)Nc3ccc(F)c(Cl)c3)C2)c(C)n(C)c1C` (stereo not drawn) [Compound C-39], the “Effect on cccDNA formation, treatment together with viral inoculum (day 0)” value in [1] is “prevented the formation of cccDNA during the early postentry step”. Besides, the “Effect on pre-established cccDNA, treatment 4 days after infection (day 4)” value in data set [1] is “minor effect”. Also, the “HBc localisation / aggregation” value in [2] (C-18 and C-39 5 μM) is recorded as “induced punctate HBc aggregation within the nucleus”. Moreover, in [2] (C-39 5 μM), the “HBc level by immunofluorescence” value is “significantly decreased the HBc level”. Further, the “Effect on secreted HBsAg” value in data set [3] (HepAD38 cells) and in data set [3] (HepG2-HBV1.3 cells) was “no impact on HBsAg production” each time. The “Effect on intracellular HBV core DNA” value in data set [4] (HepAD38 cells) and in data set [4] (HepG2-HBV1.3 cells) was “markedly reduced” each time. Besides, the EC50 stood at 78 nM in data set [5]; 56 ± 13 nM in [9] (Hepatitis B virus, 144 h, 6 days, read-out: EC50 (secreted HBV DNA)); 75 ± 16 nM in data set [14]; 84 nM in data set [15]. For the same compound, the Cytotoxicity in words result in [6] is reported as “no obvious toxicity”. In addition, the CC50 at 6 days in [7] and in data set [13] was over 100000 nM in each case. Moreover, the “Effect on intracellular total HBV RNAs” value in data set [8] (C-18, C-39 5 μM) was “slight decrease”. Besides, the “Effect on HBV encapsidated pgRNA” value in data set [8] (C-18, C-39, C-19 5 μM, ETV 25 nM) is “markedly downregulated”. In addition, the “HBV DNA secretion and intracellular HBV DNA in combination with ETV vs ETV alone” value in data set [9] (5 nM ETV together with C-39 0-10 μM) is recorded as “further inhibition”. Moreover, the “Effect on intracellular HBV capsid formation at single concentration” value in data set [10] was “dramatically inhibited capsid formation”. The “Effect on intracellular HBV 3.5 kb RNA” value in data set [11] (HepAD38 cells) and in data set [11] (HepG2-HBV1.3 cells) was “markedly reduced” in each case. Further, the “Morphology of assembled Cp149 particles (TEM)” value in data set [12] was “effectively accelerated the formation of capsid-like particles with time”. In addition, the “Effect on secreted HBeAg” value in [16] (HepAD38 cells) and in [16] (HepG2-HBV1.3 cells) was “markedly reduced” throughout.
